From patent US20220409619A1, “INHIBITORS OF HUMAN IMMUNODEFICIENCY VIRUS REPLICATION” (VIIV HEALTHCARE UK (No. 5) LIMITED, priority 2019, published 2022)

Tests used:
[1] = Compound cytotoxicity, XTT-based colorimetric assay; format: cell-based; conditions: human; uninfected MT2 cells, day 4, XTT-based colorimetric assay
Procedure: Compound cytotoxicity and the corresponding CC50 values were determined using the same protocol as described in the antiviral assay except that uninfected cells were used. Cytotoxicity was assessed on day 4 in uninfected MT2 cells by using a XTT (2,3-bis[2-Methoxy-4-nitro-5-sulfophenyl]-2H-tetrazolium-5-carboxyanilide inner salt)-based colorimetric assay (Sigma-Aldrich, St Louis, Mo.).

[2] = test system: recombinant NL4-3 virus (nef section replaced with Renilla luciferase gene) in MT-2 cells; assay: HIV cell culture assay (antiviral activity, luciferase readout); format: cell-based; conditions: Renilla, NL43
Procedure: HIV cell culture assay—MT-2 cells, 293T cells and the proviral DNA clone of NL4-3 virus were obtained from the NIH AIDS Research and Reference Reagent Program. MT-2 cells were propagated in RPMI 1640 media supplemented with 10% heat inactivated fetal bovine serum (FBS), 100 μg/ml penicillin G and up to 100 units/mL streptomycin. The 293T cells were propagated in DMEM media supplemented with 10% heat inactivated FBS, 100 μg/mL penicillin G and 100 μg/mL streptomycin. A recombinant NL4-3 proviral clone, in which a section of the nef gene was replaced with the Renilla luciferase gene, was used to make the reference virus used in these studies. The recombinant virus was prepared through transfection of the recombinant NL4-3 proviral clone into 293T cells using Transit-293 Transfection Reagent from Mirus Bio LLC (Madison, Wis.). Supernatent was harvested after 2-3 days and the amount of virus present was titered in MT-2 cells using luciferase enzyme activity as a marker by measuring luciferase enzyme activity. Luciferase was quantitated using the EnduRen Live Cell Substrate from Promega (Madison, Wis.). Antiviral activities of compounds toward the recombinant virus were quantified by measuring luciferase activity in MT-2 cells infected for 4-5 days with the recombinant virus in the presence of serial dilutions of the compound.
The 50% effective concentration (EC50) was calculated by using the exponential form of the median effect equation where (Fa)=1/[1+(ED50/drug conc.)^m] (Johnson V A, Byington R T. Infectivity Assay. In Techniques in HIV Research. ed. Aldovini A, Walker B D. 71-76. New York: Stockton Press. 1990). Curve fitting and analysis were performed with ActivityBase XE Runner software version 9.1.0.4 using model 203 (ID Business Solutions, LTD, Guildford, UK).

| SMILES | CC50 at 4 days [1] [pM] | EC50 [2] [pM] |
| --- | --- | --- |
| Cn1nc(NS(C)(=O)=O)c2c(Cl)ccc(-n3c([C@H](Cc4cc(F)cc(F)c4)NC(=O)Cn4nc(C(F)F)c5c4C(F)(F)[C@@H]4C[C@H]54)nc(-c4cccc(C(F)(F)F)n4)cc3=O)c21 (atropisomer, axis not shown; (P)) [Example 7, N-((S)-1-((1P)-1-(4-chloro-1-methyl-3-(methylsulfonamido)-1H-indazol-7-yl)-6-oxo-4-(6-(trifluoromethyl)pyridin-2-yl)-1,6-dihydropyrimidin-2-yl)-2-(3,5-difluorophenyl)ethyl)-2-((3bS,4aR)-3-(difluoromethyl)-5,5-difluoro-3b,4,4a,5-tetrahydro-1H-cyclopropa[3,4]cyclopenta[1,2-c]pyrazol-1-yl)acetamide] | > 100000 | 530 |
| Cn1nc(NS(C)(=O)=O)c2c(Cl)ccc(-n3c([C@H](Cc4cc(F)cc(F)c4)NC(=O)Cn4nc(C(F)F)c5c4C(F)(F)[C@@H]4C[C@H]54)nc(-c4ccn(CC(C)(F)F)n4)cc3=O)c21 (atropisomer, axis not shown; (P)) [Example 8, N-((S)-1-((1P)-1-(4-chloro-1-methyl-3-(methylsulfonamido)-1H-indazol-7-yl)-4-(1-(2,2-difluoropropyl)-1H-pyrazol-3-yl)-6-oxo-1,6-dihydropyrimidin-2-yl)-2-(3,5-difluorophenyl)ethyl)-2-((3bS,4aR)-3-(difluoromethyl)-5,5-difluoro-3b,4,4a,5-tetrahydro-1H-cyclopropa[3,4]cyclopenta[1,2-c]pyrazol-1-yl)acetamide] | > 100000 | 280 |
| COC(C)(C)C#Cc1cc(=O)n(-c2ccc(Cl)c3c(NS(C)(=O)=O)nn(C)c23)c([C@H](Cc2cc(F)cc(F)c2)NC(=O)Cn2nc(C(F)F)c3c2C(F)(F)[C@@H]2C[C@H]32)n1 (atropisomer, axis not shown; (P)) [Example 9, N-((S)-1-((1P)-1-(4-chloro-1-methyl-3-(methylsulfonamido)-1H-indazol-7-yl)-4-(3-methoxy-3-methylbut-1-yn-1-yl)-6-oxo-1,6-dihydropyrimidin-2-yl)-2-(3,5-difluorophenyl)ethyl)-2-((3bS,4aR)-3-(difluoromethyl)-5,5-difluoro-3b,4,4a,5-tetrahydro-1H-cyclopropa[3,4]cyclopenta[1,2-c]pyrazol-1-yl)acetamide] | > 100000 | 40 |
| COC(C)(C)CCc1cc(=O)n(-c2ccc(Cl)c3c(NS(C)(=O)=O)nn(C)c23)c([C@H](Cc2cc(F)cc(F)c2)NC(=O)Cn2nc(C(F)F)c3c2C(F)(F)[C@@H]2C[C@H]32)n1 (atropisomer, axis not shown; (P)) [Example 10, N-((S)-1-((1P)-1-(4-chloro-1-methyl-3-(methylsulfonamido)-1H-indazol-7-yl)-4-(3-methoxy-3-methylbutyl)-6-oxo-1,6-dihydropyrimidin-2-yl)-2-(3,5-difluorophenyl)ethyl)-2-((3bS,4aR)-3-(difluoromethyl)-5,5-difluoro-3b,4,4a,5-tetrahydro-1H-cyclopropa[3,4]cyclopenta[1,2-c]pyrazol-1-yl)acetamide] | > 100000 | 79 |
| CCOc1ncc(-c2cc(=O)n(-c3ccc(Cl)c4c(NS(C)(=O)=O)nn(C)c34)c([C@H](Cc3cc(F)cc(F)c3)NC(=O)Cn3nc(C(F)F)c4c3C(F)(F)[C@@H]3C[C@H]43)n2)cn1 (atropisomer, axis not shown; (P)) [Example 11, N-((S)-1-((1P)-1-(4-chloro-1-methyl-3-(methylsulfonamido)-1H-indazol-7-yl)-2′-ethoxy-6-oxo-1,6-dihydro-[4,5′-bipyrimidin]-2-yl)-2-(3,5-difluorophenyl)ethyl)-2-((3bS,4aR)-3-(difluoromethyl)-5,5-difluoro-3b,4,4a,5-tetrahydro-1H-cyclopropa[3,4]cyclopenta[1,2-c]pyrazol-1-yl)acetamide] | > 100000 | 810 |
| COc1cnc(-c2cc(=O)n(-c3ccc(Cl)c4c(NS(C)(=O)=O)nn(C)c34)c([C@H](Cc3cc(F)cc(F)c3)NC(=O)Cn3nc(C(F)F)c4c3C(F)(F)[C@@H]3C[C@H]43)n2)cn1 (atropisomer, axis not shown; (P)) [Example 13, N-((S)-1-((1P)-1-(4-chloro-1-methyl-3-(methylsulfonamido)-1H-indazol-7-yl)-4-(5-methoxypyrazin-2-yl)-6-oxo-1,6-dihydropyrimidin-2-yl)-2-(3,5-difluorophenyl)ethyl)-2-((3bS,4aR)-3-(difluoromethyl)-5,5-difluoro-3b,4,4a,5-tetrahydro-1H-cyclopropa[3,4]cyclopenta[1,2-c]pyrazol-1-yl)acetamide] | > 100000 | 200 |
| Cn1nc(NS(C)(=O)=O)c2c(Cl)ccc(-n3c([C@H](Cc4cc(F)cc(F)c4)NC(=O)Cn4nc(C(F)F)c5c4C(F)(F)[C@@H]4C[C@H]54)nc(-c4cnc(C(C)(F)F)s4)cc3=O)c21 (atropisomer, axis not shown; (P)) [Example 15, N-((S)-1-((1P)-1-(4-chloro-1-methyl-3-(methylsulfonamido)-1H-indazol-7-yl)-4-(2-(1,1-difluoroethyl)thiazol-5-yl)-6-oxo-1,6-dihydropyrimidin-2-yl)-2-(3,5-difluorophenyl)ethyl)-2-((3bS,4aR)-3-(difluoromethyl)-5,5-difluoro-3b,4,4a,5-tetrahydro-1H-cyclopropa[3,4]cyclopenta[1,2-c]pyrazol-1-yl)acetamide] | > 100000 | 590 |
| Cc1ccnc(-c2cc(=O)n(-c3ccc(Cl)c4c(NS(C)(=O)=O)nn(C)c34)c([C@H](Cc3cc(F)cc(F)c3)NC(=O)Cn3nc(C(F)F)c4c3C(F)(F)[C@@H]3C[C@H]43)n2)c1 (atropisomer, axis not shown; (P)) [Example 16, N-((S)-1-((1P)-1-(4-chloro-1-methyl-3-(methylsulfonamido)-1H-indazol-7-yl)-4-(4-methylpyridin-2-yl)-6-oxo-1,6-dihydropyrimidin-2-yl)-2-(3,5-difluorophenyl)ethyl)-2-((3bS,4aR)-3-(difluoromethyl)-5,5-difluoro-3b,4,4a,5-tetrahydro-1H-cyclopropa[3,4]cyclopenta[1,2-c]pyrazol-1-yl)acetamide] | > 100000 | 310 |
| Cn1nc(NS(C)(=O)=O)c2c(Cl)ccc(-n3c([C@H](Cc4cc(F)cc(F)c4)NC(=O)Cn4nc(C(F)F)c5c4C(F)(F)[C@@H]4C[C@H]54)nc(-c4csc(S(C)(=O)=O)n4)cc3=O)c21 (atropisomer, axis not shown; (P)) [Example 17, N-((S)-1-((1P)-1-(4-chloro-1-methyl-3-(methylsulfonamido)-1H-indazol-7-yl)-4-(2-(methylsulfonyl)thiazol-4-yl)-6-oxo-1,6-dihydropyrimidin-2-yl)-2-(3,5-difluorophenyl)ethyl)-2-((3bS,4aR)-3-(difluoromethyl)-5,5-difluoro-3b,4,4a,5-tetrahydro-1H-cyclopropa[3,4]cyclopenta[1,2-c]pyrazol-1-yl)acetamide] | > 100000 | 810 |
